Experimental data taken from US20050233403A1, “Human adipocyte cell populations and methods for identifying modulators of same” (AdipoGenix, Inc., priority 2002, published 2005).
Where two headings read alike, the source gives them in different places.

Legend:
3T3-L1 cells [1] = test: Fluorescent fatty acid uptake by 3T3-L1 cells, 96-well format; assay type: cell-based; conditions: for Uptake by 3T3-L1 cells, Day 9 / Uptake by 3T3-L1 cells, Day 0: 10 μM dye, one hour, means ± SEM; for Uptake by 3T3-L1 cells, Day 9: cells 9 days in differentiation medium; for Uptake by 3T3-L1 cells, Day 0: cells not incubated in differentiation medium; for Fatty acid uptake, Fluor. Units: dye 120 minutes
Description: To establish a rapid, 96 well format, automated assay of fatty acid uptake, the reproducibility and signal-to-noise ratios of four different fatty acid-fluorescent dye conjugates in undifferentiated and differentiated preadipocytes was determined. 3T3-L1 cells were used to compare the fluorescent dyes, the best of which was then selected for the human preadipocyte system. The fluorescent fatty acids tested were
These fatty acid-dye conjugates were chosen because their final size is close to that of physiologically relevant C:18 fatty acids, the most abundant in human fat cells and in the diet (Kokatnur, M., et al.(1979) Am. J. Clin. Nutr. 32:2198-205; Llado, I., et al. (1996) Biochem. Mol. Biol. Int. 40:295-303)). Furthermore, these dyes are vital, allowing the cells to be re-used in additional assays. 3T3-L1 cells were seeded in the wells of a 96-well plate at a density of 3.3×10^3 cells/cm^2 (1×10^3 cells/well). After reaching confluence, cells were exposed to differentiation medium for 0 and 9 days. The wells were washed with assay buffer (150 mM […], 10 mM NaPO4; 3 mM KCl; 10 μM CaCl2; 1 mM MgCl2; 25 mM glucose; pH 7.4) containing 20 μM fatty acid-free BSA, pre-warmed to 37° C. The fluorescent fatty acids were added in assay buffer to a final concentration of 10 μM, and incubated at 37° C. for one hour. Wells were washed with assay buffer containing 0.1% BSA.
Table 15 indicates the results of experiments in which 3T3-L1 cells were exposed to a differentiation inducing medium from day 0. Fatty acid uptake was assayed by exposing cells to BODPY for 120 minutes at each of the times represented.

[2] = system: human subcutaneous adipocytes; conditions: positive control
Description: (§2) Cells are 10 thawed in PM and grown in tissue culture flasks under standard incubation conditions (5% carbon dioxide, 37° C.). Cells are passaged 1:2 upon 80-100% confluency. Cells are passaged up to ten times to produce enough cells for primary screening. • C. Cells are seeded and differentiated, as described in the previous section, in 384-well plates. • D. On day 6 of preadipocyte differentiation, the DM is first changed as described in the previous section. Cells are then incubated in a replicate manner (i.e., in triplicate) with compounds. […] Compounds are further diluted in a PBS or similarly buffered solution in the absence or presence of albumin to aid compound solubility. […] Positive control cells are treated with a compound or reagent known to modulate their ability to take up and/or accumulate fatty acids. […] The FA* currently used is 4,4-difluoro-5-methyl-4-bora-3a,4a-diaza-s-indacene-3-dodecanoic acid (C1-BODIPY® 500/510 C12, catalog # D-3823, Molecular Probes, Eugene, Oreg.). […] Cells are incubated for four hours at 5% carbon dioxide/37° C., then post-washed with FAB, preferably three times, to remove unincorporated FA*. Cellular fluorescence of triglyceride droplets that have incorporated FA* is measured on a microplate reader. Efficacy of compounds on inhibiting FA* accumulation is determined by: % Efficacy=100−(sample fluorescence/negative control fluorescence×100). • H. Subsequent determination of compound toxicity on cells is measured by incubating cells (after the post-wash and FA* reading) with an aliquot of Alamar Blue (catalog # DAL-1100, BioSource International), a fluorescent dye that is reduced via cellular metabolism. After incubation of cells with the dye for up to four hours, fluorescence of the reduced compound is read. Alternatively, compound toxicity on cells can be determined in an experiment separate from the primary screen uptake/accumulation assay. Toxicity of compounds is determined by: % Toxicity =100−(sample fluorescence/negative control fluorescence×100).
(§3) Primary screens for inhibition of fatty acid uptake are carried out using human subcutaneous preadipocytes in each of two assay formats. In a first assay format, cells are exposed to natural product and synthetic library components early in the differentiation process (days 1-3 following addition of differentiation medium). In a second assay format, cells are exposed to library components late in the process (days 7-10 following addition of differentiation medium), after at least 80% of cells have differentiated.
(§4) Subcutaneous human preadipocytes (passage 3-5) are seeded in plating medium at 3.0×10^4 cells/cm^2 in 96-well or 384-well plates, giving 100% confluence upon adherence. […]

[3] = system: differentiating adipocytes
Description: The assay features differentiated human preadipocytes, but the procedure can be modified in a number of ways to discover novel compounds affecting the adipocytes of human and other species (i.e., rodent). For example, the day of compound addition during preadipocyte differentiation process can be changed as well as the incubation period. Similarly, the day of FA* addition, its type of fluorescent label and chain length, and its concentration and incubation time can be modified. • B. Up to five cell strains of frozen primary human subcutaneous preadipocytes (e.g., subcutaneous preadipocytes) are used, but this number can be increased as needed. Omental and mesenteric preadipocytes can be used in a similar manner. Cells are 10 thawed in PM and grown in tissue culture flasks under standard incubation conditions (5% carbon dioxide, 37° C.). Cells are passaged 1:2 upon 80-100% confluency. Cells are passaged up to ten times to produce enough cells for primary screening. • C. […] Cellular fluorescence of triglyceride droplets that have incorporated FA* is measured on a microplate reader. Efficacy of compounds on inhibiting FA* accumulation is determined by: % Efficacy=100−(sample fluorescence/negative control fluorescence×100). • H. Subsequent determination of compound toxicity on cells is measured by incubating cells (after the post-wash and FA* reading) with an aliquot of Alamar Blue (catalog # DAL-1100, BioSource International), a fluorescent dye that is reduced via cellular metabolism. After incubation of cells with the dye for up to four hours, fluorescence of the reduced compound is read. Alternatively, compound toxicity on cells can be determined in an experiment separate from the primary screen uptake/accumulation assay. Toxicity of compounds is determined by: % Toxicity =100−(sample fluorescence/negative control fluorescence×100).
Subsequent determination of compound toxicity is measured by incubating cells with one tenth of total cell volume of Alamar Blue (an indicator of cellular metabolism) for up to four hours before measuring fluorescence of the reduced compound. […]

[4] = system: human subcutaneous adipocytes; test: cells; conditions: Adipocyte, read-out: % Efficacy (inhibition of FA* accumulation)
Description: as §2, §3, §4

3T3-L1 cells [5] = test: Fluorescent fatty acid uptake by 3T3-L1 cells, 96-well format; assay type: cell-based; conditions: for BODIPY uptake, Day 0 / BODIPY uptake, Day 8: 10 μM
human preadipocytes [6] = test: Fatty acid uptake by human preadipocytes exposed to differentiation medium (fatty acid-based cellulomic assay); assay type: cell-based; conditions: 10 d, relative to control medium, means of 4 studies
Description: The following example describes the optimization of methods used to differentiate human preadipocytes. The example details a thorough analyses of known and potential agents and conditions for promoting human preadipocyte differentiation. Experiments were performed with abdominal subcutaneous as well as mesenteric and omental preadipocytes. A variety of conditions were tested using the fatty acid-based cellulomic assay described in Example 4. Optimization of differentiation conditions enhances the usefulness of human preadipocytes in screening for modulators (e.g., inhibitors) of obesity.
(§1) The fatty acid uptake ratio was expressed as a function of fatty acid uptake in control medium. % Diff. represents the proportion of cells that developed doubly refractile lipid droplets visible by phase contrast microscopy by observers unaware of culture conditions. Means of 4 studies are shown. CoV was also determined (not shown) to monitor assay reliability.

human preadipocytes [7] = test: Extent of differentiation: % cells with doubly refractile lipid droplets by phase contrast microscopy; assay type: cell-based; conditions: 10 d
Description: as §1

[8] = Dex 10^−4 M in suboptimal differentiation medium
[9] = Dex 10^−7 M in suboptimal differentiation medium
[10] = Dex 10^−10 M in suboptimal differentiation medium

CCCCCCC(C/C=C\CCCCCCCC(=O)O)OC(=O)c1c2ccccc2cc2ccccc12 (stereo not drawn) [12-AO, 12-(9-anthroyloxy) oleic acid]
Uptake by 3T3-L1 cells, Day 9 (3T3-L1 cells [1]): 10960 ± 1172 Raw Fluorescent Units
Uptake by 3T3-L1 cells, Day 0 (3T3-L1 cells [1]): 3613 ± 160 Raw Fluorescent Units

N#CC(C#N)=NNc1ccc(OC(F)(F)F)cc1 [FCCP, carbonyl cyanide p-(trifluoromethoxy)-phenylhydrazone]
FA* uptake and/or accumulation [2]: inhibits FA* uptake and/or accumulation in a dose-responsive manner
% Toxicity ([3]; 0.3 μM): −1%
% Toxicity ([3]; 1 μM): −4%
% Toxicity ([3]; 3 μM): 5%
Emax at 0.3 µM [4]: 42%
Emax at 1 µM [4]: 79%
Emax at 3 µM [4]: 90%

CC1=[N+]2C(=Cc3ccc(CCCCCCCCCCCC(=O)O)n3[B-]2(F)F)C=C1 [BODIPY 500/510 C12, 4,4-difluoro-5-methyl-4-bora-3a,4a-diaza-s-indacene-3-dodecanoic acid]
Uptake by 3T3-L1 cells, Day 9 (3T3-L1 cells [1]): 56869 ± 2093 Raw Fluorescent Units
Uptake by 3T3-L1 cells, Day 0 (3T3-L1 cells [1]): 404 ± 21 Raw Fluorescent Units
Fatty acid uptake, Fluor. Units (3T3-L1 cells [1]; Day 0 in differentiation inducing medium): 1166.67 Fluor. Units
Fatty acid uptake, Fluor. Units (3T3-L1 cells [1]; Day 2 in differentiation inducing medium): 5006.75 Fluor. Units
Fatty acid uptake, Fluor. Units (3T3-L1 cells [1]; Day 4 in differentiation inducing medium): 10884.5 Fluor. Units
Fatty acid uptake, Fluor. Units (3T3-L1 cells [1]; Day 6 in differentiation inducing medium): 15441.8 Fluor. Units
Fatty acid uptake, Fluor. Units (3T3-L1 cells [1]; Day 10 in differentiation inducing medium): 31645.8 Fluor. Units
Fatty acid uptake, Fluor. Units (3T3-L1 cells [1]; Day 12 in differentiation inducing medium): 37910 Fluor. Units
BODIPY uptake, Day 0 (3T3-L1 cells [5]; incubation 10 min): 1290.263 rfu
BODIPY uptake, Day 8 (3T3-L1 cells [5]; incubation 10 min): 1198.325 rfu
BODIPY uptake, Day 0 (3T3-L1 cells [5]; incubation 30 min): 510.3125 rfu
BODIPY uptake, Day 8 (3T3-L1 cells [5]; incubation 30 min): 18518.67 rfu
BODIPY uptake, Day 0 (3T3-L1 cells [5]; incubation 120 min): 686.9375 rfu
BODIPY uptake, Day 8 (3T3-L1 cells [5]; incubation 120 min): 46363 rfu
BODIPY uptake, Day 0 (3T3-L1 cells [5]; incubation 240 min): 1104.125 rfu
BODIPY uptake, Day 8 (3T3-L1 cells [5]; incubation 240 min): 49153.33 rfu
Fatty acid uptake, Fluor. Units (3T3-L1 cells [5]; Day 8 in differentiation inducing medium, dye 120 minutes): 18685 Fluor. Units

O=C(O)CCCCCCCCCCCCCCCOC(=O)c1c2ccccc2cc2ccccc12 [16-AP, 16-(9-anthroyloxy) palmitic acid]
Uptake by 3T3-L1 cells, Day 9 (3T3-L1 cells [1]): 8528 ± 20 Raw Fluorescent Units
Uptake by 3T3-L1 cells, Day 0 (3T3-L1 cells [1]): 2944 ± 404 Raw Fluorescent Units

O=C([O-])CCCCCCCCCCCc1ccc2n1[B-](F)(F)[N+]1=C(c3cccs3)C=CC1=C2.[H+] [BODIPY 558/568 C12, 4,4-difluoro-5-(2-thienyl) 1-4-bora-3a,4a-diaza-s-indacene-3-dodecanoic acid]
Uptake by 3T3-L1 cells, Day 9 (3T3-L1 cells [1]): 3622 ± 641 Raw Fluorescent Units
Uptake by 3T3-L1 cells, Day 0 (3T3-L1 cells [1]): 116 ± 9 Raw Fluorescent Units

C[C@@H]1C[C@H]2[C@@H]3CCC4=CC(=O)C=C[C@]4(C)[C@@]3(F)[C@@H](O)C[C@]2(C)[C@@]1(O)C(=O)CO [Dex, dexamethasone]
Uptake Ratio (human preadipocytes [6]; [8]): 5
Uptake Ratio (human preadipocytes [6]; [9]): 79
Uptake Ratio (human preadipocytes [6]; [10]): 49
% Diff. (human preadipocytes [7]; [8]): 30%
% Diff. (human preadipocytes [7]; [9]): 70%
% Diff. (human preadipocytes [7]; [10]): 60%
